Tests used:
[1] = tested on: human prostate cancer cells (PC3); assay: Cytotoxicity by SRB assay, PC3 cells; format: cell-based; details: 0.01 μM to 100 μM, 72 h
Procedure: (§1) The human prostate cancer cells (PC3) and human osteosarcoma cells (MG-63) were obtained from Nawah Scientific Inc. (Mokatam, Cairo, Egypt) and cultured in DMEM (Dulbecco's modified eagle's medium), Gibco, USA, supplemented with fetal bovine serum (FBS) at a concentration of 10% and 100 U/mL of penicillin and streptomycin (PS). The Cells were incubated at 37° C. in a humidified environment that contained 5% CO2. Cells were seeded in 96-well plates as aliquots of 100 μL cell suspension and incubated in a complete media for 24 h. afterward, cells were treated with N′-(1-naphthoyloxy)-2-(benzo[d]thiazol-2-yl)acetimidamide at diverse concentrations ranging from 0.01 μM to 100 μM for 72 h. Then, cells were fixed at 4° C. for one hour with 150 μL of 10% trichloroacetic acid (TCA). After washing the cells five times with distilled water, 70 μL of sulforhodamine (SRB) solution (0.4% w/v) was added and incubated for 10 min at room temperature in a dark place. […] Then, 150 μL of Tris pH 10.5 (10 mM) was added, and the absorbance was measured at 540 nm using a BMG LABTECH®-FLUOstar Omega microplate reader (Ortenberg, Germany). Half maximal inhibitory concentrations (IC50) values were calculated for each experiment using GraphPad Prism 6 software. […] The inhibition was calculated using the following equation: Inhibition%=100−Average Viability

[2] = tested on: human osteosarcoma cells (MG-63); assay: Cytotoxicity by SRB assay, MG-63 cells; format: cell-based; details: 0.01 μM to 100 μM, 72 h
Procedure: as §1

What does the source list for `N/C(Cc1nc2ccccc2s1)=N\OC(=O)c1cccc2ccccc12` [1,3-benzothiazol-2-yl-N′-[(naphthalene-1-carbonyl)oxy]ethanimidamide]?
antiproliferative activity against prostate cancer cells (PC3) [1]: excellent antiproliferative activities; antiproliferative activity against osteosarcoma (MG-63) cells [2]: excellent antiproliferative activities; melting point: 191 to 193 °C
